As usually defined, the inhibition is the percentage by which the read-out fell short of the control.

Experiment [1] has as its system TNF-α release from IL-1α activated PEC. The experiment can be described thus: TNF-α release from IL-1α activated PEC, ELISA. Type of experiment: cell-based. Particulars: Mus musculus, 50 ng/ml IL-1α, at the tested time points (24, 48, 72 hrs), read-out: inhibition of induced levels of TNF-α. The procedure:
Cells were isolated and treated with or without CT1501R (250 μM) 1 hour prior to IL-1-α activation. The supernatants were collected at 24, 48 or 72 hrs following activation and assayed for TNF-α by ELISA (+/-SD).
(§1) Murine peritoneal exudate cell macrophages (PEC) were isolated by perfusion of mouse peritoneum and plated into 96-well trays at 5×10^5 cells per well. Cells were stimulated with 5 μg/ml Salmonella abortus equi-derived endotoxin CLPS; Sigma Chemical Co., L-1887) or 50 ng/ml IL-1α (Genzyme; Cambridge, Mass.) with or without the addition of CT1501R added to the cultures one hour prior to addition of the stimulus. At various times thereafter, supernatants were removed and levels of either TNF-α or IL-1α were assayed using commercial 96-well microtiter immunoassay kits (Genzyme; TNF; Endogen, Boston, Mass.; IL-1α) according to manufacturer's specifications. For the adhesion studies, early passage human umbilical vein endothelial cells (HUVEC) were obtained from commercial suppliers (Clonetics, San Diego, Calif. or Cell Systems, Seattle, Wash.) and cultured in defined, Hepes buffered, serum free medium (Cell Systems, cat 301-180) supplemented with acidic FGF (Cell Systems cat 401-111). […] After addition of […] Hanks Balanced Salt Solution (HBSS), the microtiter plate was then analyzed on a Millipore Cytofiuor fluorescent plate reader (excitation 488 nm; emission 525 nm). […]

The subject of experiment [2] is adhesion of U937 cells to activated HUVEC. Nature of the experiment: adhesion of U937 cells to activated HUVEC (BCECF fluorescence). Type of experiment: cell-based, human. As to conditions: 250 μM. The procedure: HUVEC were stimulated with either IL-1-α (100 ng/ml); TNF-α (10 ng/ml) or LPS ([…]) with or without the addition of 250 μM CT1501R one hour prior to addition of the stimulus. Twelve hours later, the cells were assayed for adhesion of BCECF-labeled U937 cells. FIG. 21 is the relative BCECF fluorescence (+/-SD) for each of the treatment groups.
as §1, with “specifications.” for “specifications. For the adhesion studies, early passage human umbilical vein endothelial cells (HUVEC) were obtained from commercial suppliers (Clonetics, San Diego, Calif. or Cell Systems, Seattle, Wash.) and cultured in defined, Hepes buffered, serum free medium (Cell Systems, cat 301-180) supplemented with acidic FGF (Cell Systems cat 401-111).”

The test system of experiment [3] is PBMC (peripheral blood mononuclear cells). The experiment can be described thus: two-way mixed lymphocyte reaction (MLR). Type of experiment: cell-based, human. From the text: Various in vitro assays can be used to measure effects of the inventive compounds to module immune activity and have antitumor activity using a variety of cellular types. For example, a mixed lymphocyte reaction (MLR) provides a valuable screening tool to determine biological activity of each inventive compound. In the MLR, PBMCs (peripheral blood mononuclear cells) are obtained by drawing whole blood from healthy volunteers in a heparinized container and diluted with an equal volume of hanks balanced salt solution (HBSS). This mixture is layered on a sucrose density gradient, such as a Ficoll-Hypaque® gradient (specific gravity 1.08), and centrifuged at 1000×g for 25 minutes at room temperature or cooler. PBMC are obtained from a band at a plasma-Ficoll interface, separated and washed at least twice in a saline solution, such as HBSS. Contaminating red cells are lysed, such as by ACK lysis for 10 min at 37° C., and the PBMCs are washed twice in HBSS. The pellet of purified PBMCs is resuspended in complete medium, such as RPMI 1640 plus 20% human inactivated serum. Proliferative response of PBMC to allogeneic stimulation is determined in a two-way MLR performed in a 96-well microliter plate. […] At the conclusion of the incubation tritiated thymidine is added (for example, 1 μCi/well of 40 to 60 Ci/mmole) and proliferation determined by liquid scintillation counting. […]

As for `C[C@@H](O)CCCCn1c(=O)c2c(ncn2C)n(C)c1=O` [CT1501R, (R)-1-(5-hydroxyhexyl)-3,7-dimethylxanthine], the inhibition at 250 µM in experiment [1] was in the range of 50 to 70%. Also, the “relative adhesiveness of activated HUVEC for U937 cells” value in experiment [2] (1 hour prior to TNF-α, IL-1α or LPS) is given as “marked suppression in the relative adhesiveness”. Further, the “background attachment of U937 cells to HUVEC” value in experiment [2] (non-activated HUVEC) is on record as “no significant effect on background attachment”. Besides, the “proliferative response of PBMC to allogeneic stimulation” value in experiment [3] was “showed dose-response activity”.

The values are drawn from US5621102A, “Process for preparing enantiomerically pure xanthine derivatives” (Cell Therapeutics, Inc., priority 1995, dated 1997).
